This note sets out measurements from patent US7834019B2, “Substituted pyrazolo[3,4-d]pyrimidinone derivatives” (Banyu Pharmaceutical Co., Ltd., priority 2006, dated 2010).

For one test, the target named is T1, Weel kinase (Homo sapiens, UniProt P30291).
T1 construct: made in house; host or cells: Sf9 insect cells (recombinant baculovirus)
Put plainly: Weel kinase-inhibitory effect (33P-ATP filter assay with purified GST-tagged Weel kinase). The format is biochemical. Conditions: Poly(Lys,Tyr) substrate, 10 μM ATP, 30° C. for 30 minutes. The source says:
Pharmaceutical Test 1 (Weel Kinase-Inhibitory Effect)
(1) Purification of Weel Kinase:
A cDNA of Weel kinase with […] (GST) fused at the amino terminal thereof was inserted into a baculovirus expression vector to construct a recombinant baculovirus, with which cells of an insect cell line Sf9 were infected for high expression therein. The infected cells were recovered and solubilized, and then the GST-tagged Weel kinase protein was adsorbed by a glutathione column, and eluted from the column with glutathione, and the active fraction was desalted in a desalting column to give a purified enzyme.
(2) Determination of Weel Kinase Activity:
In determination of the Weel kinase activity, a synthetic peptide, Poly(Lys,Tyr) Hydrobromide (Lys:Tyr (4:1)) bought from Sigma was used as the substrate.
The amount of the reaction mixture was 21.1 μL; and the composition of the reaction buffer was 50 mM Tris-HCl buffer (pH 7.4)/10 mM magnesium chloride/1 mM dithiothreitol. The purified Weel kinase, 2.5 μg of the substrate peptide, 10 μM of non-labeled adenosine triphosphate (ATP) and 1 μCi of [γ-^33P]-labeled ATP (2500 Ci/mmol or more) were added to it, and incubated at 30° C. for 30 minutes. Next, 10 μL of 350 mM phosphate buffer was added to the reaction mixture to stop the reaction. The substrate peptide was adsorbed by a P81 paper filter 96-well plate, then washed a few times with 130 mM phosphate buffer, and its radioactivity was counted with a liquid scintillation counter. The [γ-^33P]-labeled ATP was bought from Amersham Bioscience.
To add the test compound to the reaction system, the compound was diluted with dimethylsulfoxide (DMSO) to prepare a series of dilutions. 1.1 μL of each dilution was added to the reaction system. As a control, 1.1 μL of DMSO was added to the reaction system.

Test [1] relates to Human colon cancer cells WiDr. The test can be described thus: Tumor growth-inhibitory effect, WiDr tumor implanted subcutaneously in nude rats. It counts as in vivo, F344/N Jcl-mu nude rats. Conditions: gemcitabine 50 mg/kg intravenously alone. Here is the method:
Pharmaceutical Test 4 (Tumor Growth-Inhibitory Effect)
Human colon cancer cells WiDr (gotten from ATCC) were implanted into the subcutaneous area of the back of F344/N Jcl-mu nude rats. Eight days after the implantation, gemcitabine (50 mg/kg, Gemzar injection, Eli-Lilly) was intravenously administered to them; and after 24 hours, a test compound was dissolved in a solvent (5% glucose) and given to them through continuous intravenous injection for 8 hours. The tumor volume (0.5×(major diameter)×(minor diameter)^2) was determined on day 0, 3, 6, 10 and 13. Day 0 means the day on which gemcitabine was administered. The relative tumor volume is a relative value, as calculated on the basis of the tumor volume of 1 on day 0. The tumor growth percentage (% T/C) was obtained according to the following formula:
When the tumor volume change from day 0 in the group subjected to test compound administration is more than 0 (>0): % T/C=[(tumor volume change in the test compounds on day 3, 6, 10, 13)/(tumor volume change in the control on day 3, 6, 10, 13)]×100. When the tumor volume change from day 0 in the group subjected to test compound administration is less than 0 (<0): % T/C=[(tumor volume change in the test compounds on day 3, 6, 10, 13)/(tumor volume […])]×100.

pIC50: −log10 of the molar value.

T1 sequence (P30291 whole entry): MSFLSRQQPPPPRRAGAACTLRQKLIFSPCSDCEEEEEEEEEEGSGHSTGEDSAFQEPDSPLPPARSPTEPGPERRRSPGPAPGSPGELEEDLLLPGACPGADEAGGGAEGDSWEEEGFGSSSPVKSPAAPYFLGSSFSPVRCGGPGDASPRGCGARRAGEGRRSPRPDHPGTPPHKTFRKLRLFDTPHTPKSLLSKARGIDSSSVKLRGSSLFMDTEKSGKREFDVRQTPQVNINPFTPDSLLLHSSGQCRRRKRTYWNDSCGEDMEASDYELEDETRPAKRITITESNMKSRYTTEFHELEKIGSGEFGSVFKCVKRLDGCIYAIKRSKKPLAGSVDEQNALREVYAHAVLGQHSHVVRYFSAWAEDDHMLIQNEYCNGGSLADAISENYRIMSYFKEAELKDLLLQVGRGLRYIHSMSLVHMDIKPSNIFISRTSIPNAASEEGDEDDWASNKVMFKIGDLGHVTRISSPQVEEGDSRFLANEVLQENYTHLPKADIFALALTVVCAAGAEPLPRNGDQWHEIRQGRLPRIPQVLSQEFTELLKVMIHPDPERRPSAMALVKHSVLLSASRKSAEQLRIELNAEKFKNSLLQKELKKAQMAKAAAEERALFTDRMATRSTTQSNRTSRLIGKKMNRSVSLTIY

As to `C=CCn1c(=O)c2cnc(Nc3ccc(N4CCN(C)CC4)cc3)nc2n1-c1cccc(C(=O)N(C)C)c1` [Example 1, 3-(2-allyl-6-{[4-(4-methylpiperazin-1-yl)phenyl]amino}-3-oxo-1,2-dihydro-3H-pyrazolo[3,4-d]pyrimidin-1-yl)-N,N-dimethylbenzamide], the pIC50 against Weel kinase is 8.15.
Same read-out and setting: the value for `C=CCn1c(=O)c2cnc(Nc3ccc(N4CCN(C)CC4)c(CO)c3)nc2n1-c1ccsc1` [Example 3, 2-allyl-6-{[3-(hydroxymethyl)-4-(4-methylpiperazin-1-yl)phenyl]amino}-1-(3-thienyl)-1,2-dihydro-3H-pyrazolo[3,4-d]pyrimidin-3-one] was 8.12.
`C=CCn1c(=O)c2cnc(Nc3ccc(N4CCN(C)CC4)cc3)nc2n1-c1cccc(CN(C)C)c1` [Example 26, 2-allyl-1-[3-(dimethylaminomethyl)phenyl]-6-{[4-(4-methylpiperazin-1-yl)phenyl]amino}-1,2-dihydro-3H-pyrazolo[3,4-d]pyrimidin-3-one] showed a pIC50 on Weel kinase of 7.74.
At Weel kinase, `C=CCn1c(=O)c2cnc(Nc3ccc(N4CCN(C)CC4)c(CO)c3)nc2n1-c1ccccn1` [Example 29, 2-allyl-6-{[3-hydroxymethyl-4-(4-methylpiperazin-1-yl)phenyl]amino}-1-pyridin-2-yl-1,2-dihydro-3H-pyrazolo[3,4-d]pyrimidin-3-one] showed a pIC50 of 7.70.
In the case of `C=CCn1c(=O)c2cnc(Nc3ccc(N4CCN(C)CC4)c(C)c3)nc2n1-c1cccc(CN(C)C)n1` [Example 52, 2-allyl-1-[6-[(dimethylamino)methyl]pyridin-2-yl]-6-{[3-methyl-4-(4-methylpiperazin-1-yl)phenyl]amino}-1,2-dihydro-3H-pyrazolo[3,4-d]pyrimidin-3-one], the pIC50 on Weel kinase is 7.92.
On the same count and under the same terms, to `C=CCn1c(=O)c2cnc(Nc3ccc(N4CCN(C)CC4)c(C)c3)nc2n1-c1cccc(OCCO)n1` [Example 98, 2-allyl-1-[6-(2-hydroxyethoxy)pyridin-2-yl]-6-{[3-methyl-4-(4-methylpiperazin-1-yl)phenyl]amino}-1,2-dihydro-3H-pyrazolo[3,4-d]pyrimidin-3-one] belongs 7.85.
The compound `C=CCn1c(=O)c2cnc(Nc3ccc(N4CCN(C)CC4)cc3)nc2n1-c1cccc(CN(C)S(C)(=O)=O)n1` [Example 99, N-{[6-(2-allyl-6-{[4-(4-methylpiperazin-1-yl)phenyl]amino}-3-oxo-1,2-dihydro-3H-pyrazolo[3,4-d]pyrimidin-1-yl)pyridin-2-yl]methyl}-N-methylmethanesulfonamide] showed a pIC50 against Weel kinase of 8.06. This pIC50 is 0.21 log units higher than that of the compound before.
The same measure, in the same setting: to `Cc1cc(Nc2ncc3c(=O)n(Cc4ccccc4)n(-c4ccccc4)c3n2)ccc1N1CCN(C)CC1` [Example 111, 2-benzyl-6-{[3-methyl-4-(4-methylpiperazin-1-yl)phenyl]amino}-1-phenyl-1,2-dihydro-3H-pyrazolo[3,4-d]pyrimidin-3-one] belongs 7.62; to `C#CCn1c(=O)c2cnc(Nc3ccc(N4CCN(C)CC4)cc3)nc2n1-c1cccc(C(C)(C)O)n1` [Example 113, 1-[6-(1-hydroxy-1-methylethyl)pyridin-2-yl]-6-{[4-(4-methylpiperazin-1-yl)phenyl]amino}-2-(2-propynyl)-1,2-dihydro-3H-pyrazolo[3,4-d]pyrimidin-3-one], 8.20.
The compound `CC(C)n1c(=O)c2cnc(Nc3ccc(C4CCN(C)CC4)cc3)nc2n1-c1cccc(C(C)(C)O)n1` [Example 147, 1-[6-(1-hydroxy-1-methylethyl)pyridin-2-yl]-2-isopropyl-6-{[4-(1-methylpiperidin-4-yl)phenyl]amino}-1,2-dihydro-3H-pyrazolo[3,4-d]pyrimidin-3-one] gave a pIC50 against Weel kinase of 7.62.
Turning to `C=CCn1c(=O)c2cnc(Nc3ccc(N4CCN(C)CC4)cc3)nc2n1-c1cccc(N2CCN(C)C2=O)n1` [Example 148, 2-allyl-1-[6-(3-methyl-2-oxoimidazolidin-1-yl)pyridin-2-yl]-6-{[4-(4-methylpiperazin-1-yl)phenyl]amino}-1,2-dihydro-3H-pyrazolo[3,4-d]pyrimidin-3-one], the pIC50 at Weel kinase is 7.77. This pIC50 and that of the compound before are within 0.2 log units of each other.
With `Nc1ccn([C@@H]2O[C@H](CO)[C@@H](O)C2(F)F)c(=O)n1` [Gemcitabine, gemcitabine, reference compound], the “% T/C day 3” value in test [1] (day 3) worked out at 22%. Also, the “% T/C day 6” value in test [1] (day 6) turned out to be 31%. In test [1] (day 10), the “% T/C day 10” value was found to be 54%. In test [1] (day 13), the “% T/C day 13” value came out at 65%.

In general, pIC50 refers to the IC50 on a negative log10 scale, so that one unit is a factor of ten. A lower pIC50 goes with a high IC50.
